Assay results reported in patent US20080063643A1, “Peptide Derived From Hepatitis C Virus” (priority 2003, published 2008).

How the values were obtained:
peptide-reactive IgG = assay: ELISA of anti-C-35 and anti-NS5A-2132 IgG in sera: cross reactivity, HLA and genotype restriction (Example 3); assay type: binding, human
Source text: Two peptides with a purity of 90% or more were purchased from BIOSYNTHESIS (Lewisville, Tex.): HCV-1b core protein 35-44 ([…] (SEQ ID NO: 1) capable of inducing an HLA-A2-restricted CTL activity) and HCV-1b NS5A protein 2132-2140 ([…] (SEQ ID NO: 2) capable of inducing an HLA-A24-restricted CTL activity). As a negative control, peptides derived from HIV with an HLA-A2-binding motif ([…] (SEQ ID NO: 64)) and an HLA-A24-binding motif ([…] (SEQ ID NO: 63)) were used.
The level of peptide-specific IgG was measured by an enzyme-linked immunosorbent assay (ELISA). Briefly, each peptide was dissolved in dimethyl sulfoxide (DMSO) and stored at −20° C. The peptide (20 μg/well) diluted with 0.1 M carbonate buffer containing disuccinimidyl suberate (DSS) (PIERCE, Rockford, Ill.) as a chemical crosslinker was bound to an ELISA plate. The wells were washed 3 times with 0.05% Tween 20/PBS (PBST). Then, the plate was blocked overnight at 4° C. with Block Ace (Yukijirushi, Tokyo, Japan). A serum sample was diluted 1:100, 1:200 or 1:400 with 0.05% Tween 20/Block Ace, and 100 μl/well of the sample was added to each well. After the sample was incubated at 37° C. for 2 hours, the plate was washed 9 times with PBST, and further incubated at 37° C. for 2 hours with 100 μl/well of a 1:1000 diluted rabbit anti-human IgG (γ-chain specific) (DAKO Glostrup, Denmark). After the plate was washed 9 times, 100 μl/well of a 1:100 diluted anti-rabbit IgG-conjugated horseradish peroxidase-dextran polymer (En Vision, DAKO) was added to each well, and then the plate was incubated at room temperature for 40 minutes. After the plate was washed, 100 μl/well of a tetramethylbenzidine substrate solution (KPL, Guildford, UK) was added, and the reaction was stopped by the addition of 1.0 M phosphoric acid.
The cross reactivity of two antibodies reactive to the peptides derived from HCV-1b was examined. The sera obtained from 60 HCV patients and patients who are not included in the cohort study (CH, n=22, LC, n=21 and HCC, n=17) were examined for reactivity to the peptides of the core 35-44 (C-35) and NS5A 2132-2140 (NS5A-2132). The sera were also obtained from 24 subjects with an autoimmune disease, 17 cases of HBV infection and 10 cases of HTLV-1 infection. The sera obtained from 37 HDs were used as a negative control. The level of peptide-reactive IgG contained in the serially diluted serum samples was measured by ELISA. The results are reported by the absorbance (OD) of each sample. The representative results of OD at a serum dilution of 100:1 are shown. The cut-off value was set at 0.093 (mean+2 SD of OD from HDs). The statistical analysis was carried out using the χ^2-test. Values of P<0.05 were considered statistically significant.
Then, the correlation between the HLA-class IA phenotype and the level of anti-C-35 IgG or anti-NS5A-2132 IgG was examined in 29 patients with a disease associated with HCV. The HLA-class IA phenotype was determined by a standard serological method. Nine patients were HLA-A2^+, 13 patients were A24^+, and the remaining 7 patients were A2^−-A24^−. The levels of Anti-C-35 and anti-NS5A-2132 were measured by a standard ELISA and the OD value of each patient at a serum dilution of 100:1 is shown in the figure.
Also the correlation between the HCV genotype and the level of anti-C-35 IgG or anti-NS5A-2132 IgG was examined in a double blind study in patients infected with HCV-1b (n=29), HCV-2a (n=16) and HCV-2b (n=3). The HCV genotype was determined by directly sequencing HCV in the serum of the patient. The levels of anti-C-35 and anti-NS5A-2132 were measured by a standard ELISA and the OD value of each patient at a serum dilution of 100:1 is shown. The cut-off value was set at 0.093 (mean+2 SD of OD from HDs).
Then, the sera of CH (n=24), LC (n=22), HCC (n=26) and HDs (n=9) were newly prepared and the level of anti-NS5A-2132 IgG was measured (FIG. 26). […]

[1] = system: peptide-specific IgG in the serum; assay: ELISA of peptide-specific IgG in sera of HCV patients and healthy donors (Example 1); assay type: binding, human
How it was run: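 Sera from 12 HCV patients and 10 healthy donors, diluted 1:100–1:400, tested by ELISA on plates coated with DSS-crosslinked HLA-A2/A24-motif HCV 1b peptides (20 µg/well); HIV peptide as negative control. Incubated 2 h at 37 °C; detection via rabbit anti-human IgG, HRP-polymer anti-rabbit, TMB. Cutoff = healthy-donor mean OD ± 3 SD.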

[2] = out of 60, cut-off 0.093 OD, serum dilution 100:1

In the case of YLLPRRGPRL [No. 40], the “IgG level among the 3 groups (CH, LC and HCC patients)” value (peptide-reactive IgG) is reported as “no significant difference in the IgG level among the 3 groups”, the “detection of the anti-peptide antibody by HLA-class IA phenotype” value (peptide-reactive IgG; 29 patients: HLA-A2+, A24+, A2-A24-) is reported as “detected in the majority of the patients” and the “positivity of sera from the other (not HCV) groups” value (peptide-reactive IgG; autoimmune disease, HBV, HTLV-1) is reported as “not positive”. The “number of HTLV-1+ subjects with a significant level of anti-peptide IgG” value (peptide-reactive IgG; out of 10 cases) was 8, the “number of HCV-positive patients with a significant level of anti-peptide IgG” value (peptide-reactive IgG; [2]) was 56 and the “percentage of HCV-positive patients with a significant level of anti-peptide IgG” value (peptide-reactive IgG; [2]) was 93.3%. For the same sequence, the “number of patients with the anti-peptide antibody detected” value (“number of patients” for short) (peptide-reactive IgG; patients infected with HCV-1b, out of 30) was 26, the “number of patients” value (peptide-reactive IgG; patients infected with HCV-2a, out of 15 (C-35) or 16 (NS5A-2132)) was 15 and the “number of patients” value (peptide-reactive IgG; patients infected with HCV-2b, out of 3) was 3. The “IgG antibody reactive to the peptide in the serum of single patients” value ([1]; representative patients, FIGS. 1 and 2) was “detected”, the “Healthy donors (n = 10) Positive %” value ([1]; share of 10 healthy donors with serum IgG reactive to the peptide, ELISA, cut-off value 1.83) was 0% and the “HCV patients (n = 12) Positive %” value ([1]; share of 12 HCV patients with serum IgG reactive to the peptide, ELISA, cut-off value 1.83) was 100%.
